Consider one compound from patent US20260185169A1, “MOLECULAR SIGNATURES TO PREDICT LONG-TERM LIVER FIBROSIS PROGRESSION” (THE BOARD OF REGENTS OF THE UNIVERSITY OF TEXAS SYSTEM, priority 2022, published 2026).

For assay [1], the system named is clinical PCLS tissues. As to the kind of experiment: FPS/PLS response (CES, nCounter) in organotypic ex vivo culture of clinical PCLS tissues. The assay is classed as cell-based, human. The text has this: Evaluation of galunisertib, erlotinib, AM095, bortezomib, pioglitazone, metformin, epigallocatechin gallate (EGCG), I-BET 151, JQ1, captopril, nizatidine (Selleck Chemicals); MG-132 (Sigma-Aldrich); cenicriviroc (AbbVie) (Table 2) were done in organotypic ex vivo culture of precision-cut liver slice (PCLS) tissues in the FPS validation set 2 as previously described. Patient-derived liver cell spheroids were generated from a cirrhosis patient and high-risk FPS was induced by free fatty acids, and treated with EGCG, bortezomib, cenicriviroc, and/or bezafibrate for 48 h. Mycoplasma-free human hepatic myofibroblast cell lines, LX-2 and TWNT-4, were cultured with MG-132 (20 μM) or DMSO control for 12 and 24 h in triplicates.
Total RNA was isolated from fixed tissue sections by using High Pure RNA Paraffin kit (Roche), and assessed for quality by qRT-PCR of RPL13A. Total RNA from the PCLS tissues was isolated using RNeasy kit (Qiagen). RNA samples (100-200 ng) were subjected to the PLS/FPS assay implemented in the nCounter platform (NanoString), and transcriptome profiling of the CENTAUR trial samples was performed by RNA-Seq (TrueSeq RNA Access, Illumina). Expression of BCL2, COL1A1, and ACTA2 genes was measured by qRT-PCR (Table 3). Serum protein profiling was performed by using xMAP assay (Luminex).
Total RNA was isolated from three to five 10-μm-thick formalin-fixed paraffin-embedded (FFPE) tissue sections from the PLS/FPS derivation/validation cohorts by using High Pure RNA Paraffin kit (Roche), and lack of severe RNA fragmentation was confirmed by qRT-PCR of a housekeeping gene RPL13A as previously described.^1 From freshly harvested myofibroblast cell lines, LX-2 and TWNT-4, and clinical precision-cut-liver slice (PCLS) tissues stored in RNAlater (ThermoFisher) at −80?C, total RNA was isolated using RNeasy kit (Qiagen), and the RNA integrity number (RIN)>8 by Bioanalyzer (Agilent) was regarded as sufficient quality for expression analysis. Total RNA samples (100 to 500 ng) were subjected to the gene signature assays implemented in the digital transcript counting technology (NanoString) according to manufacturer's instruction. Poor quality profiles were detected based on maximum signal intensity from positive control probes <3,000U. Raw transcript count data were log-transformed (base 2) and scaled by geometric mean of control probe data by using NanoString normalizer module implemented in GenePattern data analysis suite (www.broadinstitute.org/genepattern). Genome-wide transcriptome profiling of the CENTAUR trial samples was performed using 100 to 200 ng total RNA by RNA-Seq using exome-enriched library preparation according to the manufacturer's protocol (TrueSeq, Illumina). Raw sequencing reads were mapped onto the reference human genome (hg19) by using the STAR aligner (ver. 2.6.1b) followed by the read counting on genes via featureCounts in the Subread package (ver. 1.6.1). The raw read counts were further normalized by using the Relative Log Expression (RLE) implemented in the DESeq2 package (ver. 1.22.2). Expression of COL1A1, and ACTA2, and BCL2 genes was measured by qRT-PCR (BioRad) using ddCt method with RPL13A as housekeeping gene, as previously described (refer Table 3 for the primer sequences). Gene expression profiles of the PLS/FPS-inducible cell culture model (cell-culture-derived PLS [cPLS] system) treated with erlotinib, pioglitazone, captopril, and resveratrol were obtained from our previous study (GSE81801).

For assay [2], the system named is NASH patients with F1 to F3 fibrosis. To be noted: phase IIb CENTAUR trial, 1-year treatment; cited from earlier work.
Assay [3] has the same test system. Kind of assay: Histological fibrosis change after 1-year treatment in phase IIb CENTAUR trial. The assay is classed as in vivo, human. To be noted: cenicriviroc arm n=9, 1-year treatment.

In the case of `CCCCOCCOc1ccc(-c2ccc3c(c2)/C=C(/C(=O)Nc2ccc([S@@+]([O-])Cc4cncn4CCC)cc2)CCCN3CC(C)C)cc1` [Cenicriviroc], the “FPS response rate (number of responding patients)” value in assay [1] (count of patients with CES-based FPS response, PCLS cultured 24 h with agent vs vehicle) came to 4. Also, the “PLS response rate (number of responding patients)” value in assay [1] (count of patients with PLS response, ex vivo PCLS culture) was 7. In addition, the histological fibrosis result in assay [2] is listed as “improved histological fibrosis”. For the same compound, the “patients with improvement of fibrosis in the year 1 biopsy” value in assay [3] is recorded as 4 patients.
